Assays:
[1] = tested on: 786-O-Hif-Luc cells; assay: Luciferase Assay (HIF responsive elements reporter); details: read-out: Mean Luciferase EC50 (nM), 786-O-Hif-Luc cells
Experimental: A pool of infected cells were then selected against 2 μg/mL of puromycin (P8833, Sigma) for 10 days followed by limited dilution to select single clones. […] Each concentration was tested in triplicate. After about 24 hours, luciferase activity was determined using ONE-Glo Luciferase Assay Reagent (E6110, Promega) following the manufacturer's recommended procedure. EC50 were calculated using Dotmatics software.

[2] = target: T1, HIF-2α HIS TAG-PASB Domain (Homo sapiens, UniProt Q99814); assay: HIF-2α Scintillation Proximity Assay (SPA); format: binding; details: read-out: Scintillation Proximity Assay IC50
T1 construct: 100 nM HIF-2α HIS TAG-PASB Domain
In short: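 IC50 values rest on percent inhibition, where the sample signal is scaled between high and low controls. Wells contain about 100 μL: compound dispensed as 2 μL of DMSO solution, 88 μL protein-probe mix and 10 μL of beads.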

T1 sequence (Q99814 240-350 limits assumed): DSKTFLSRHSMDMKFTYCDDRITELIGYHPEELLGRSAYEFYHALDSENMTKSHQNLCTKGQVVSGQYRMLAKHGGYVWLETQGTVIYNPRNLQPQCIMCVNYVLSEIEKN

| EC50 [1] | IC50 [2] | SMILES |
| --- | --- | --- |
| < 50 nM | < 50 nM | O=S(=O)(c1ccc(OCC(F)(F)F)c2c1[C@H](O)C(F)(F)C2)C(F)(F)F [Compound 675] |
| > 1000 nM | 250 to 1000 nM | O=S(=O)(c1ccc(Oc2cc(F)c(F)c3[nH]ncc23)c2c1C(O)C(F)(F)C2)C(F)(F)F (stereo not shown) [Compound 261] |
| 250 to 1000 nM | 50 to 249 nM | CS(=O)(=O)c1ccc(Oc2cc(F)cc(F)c2)c(C(F)F)c1C#N [Compound 93] |
| > 1000 nM | 250 to 1000 nM | O=S(=O)(c1ccc(Nc2cc(F)cc(F)c2)c2c1C(O)CC2)C(F)(F)F (stereo not shown) [Compound 506] |
| 50 to 249 nM | 50 to 249 nM | CS(=O)(=NC#N)c1ccc(Oc2cc(F)cc(C#N)c2)c2c1[C@H](O)[C@H](F)C2 (stereo partly shown) [Compound 302] |
| 50 to 249 nM | 50 to 249 nM | CC1(C)CC[C@@H](O)[C@H](c2ccc(S(=O)(=O)C(F)(F)F)c3c2CC(F)(F)[C@H]3O)C1 [Compound 547] |
| 250 to 1000 nM | 250 to 1000 nM | CC1(COc2ccc(S(=O)(=O)C(F)(F)F)c3c2CC(F)(F)C3O)COC1 (stereo not shown) [Compound 622] |
| > 1000 nM | 250 to 1000 nM | N#Cc1cc(F)cc(Oc2ccc(S(=O)(=O)C(F)F)cc2C#N)c1 [Compound 134] |
| < 50 nM | < 50 nM | C[C@]1(C#N)C[C@@H](Oc2ccc(S(=O)(=O)C(F)(F)F)c3c2CC(F)(F)[C@H]3O)C1 [Compound 789] |
| 250 to 1000 nM | > 1000 nM | N=S1(=O)c2ccc(Oc3cc(F)cc(F)c3)c(Br)c2C(O)C1(F)F (stereo not shown) [Compound 377] |
| 250 to 1000 nM | 250 to 1000 nM | O=S(=O)(c1ccc([C@@H]2CCC[C@H](O)C2)c2c1[C@H](O)C(F)(F)C2)C(F)(F)F [Compound 482, (S)-2,2-difluoro-4-((1R,3S)-3-hydroxycyclohexyl)-7-((trifluoromethyl)sulfonyl)-2,3-dihydro-1H-inden-1-ol] |
| 250 to 1000 nM | 250 to 1000 nM | N#Cc1cc(F)cc(Oc2ccc(S(=O)(=O)C(F)F)c3c2CC(F)(F)[C@H]3N)c1 [Compound 207] |
| > 1000 nM | > 1000 nM | O=S(=O)(c1ccc(-c2ccccc2Cl)c2c1[C@H](O)C(F)(F)C2)C(F)(F)F [Compound 565] |
| 250 to 1000 nM | 250 to 1000 nM | CS(=O)(=O)c1ccc(OC(CF)CF)c2c1[C@H](O)C(F)(F)[C@@H]2F [Compound 762] |
| > 1000 nM | > 1000 nM | N#Cc1cc(F)cc(Oc2ccc(S(=O)(=O)C(F)(F)F)c3c2CC(F)(F)[C@H]3NCCO)c1 [Compound 291] |
| 50 to 249 nM | 50 to 249 nM | O=S(=O)(c1ccc(OC2CCOC2)c2c1C(O)C(F)(F)C2)C(F)(F)F (stereo not shown) [Compound 604] |
| > 1000 nM | > 1000 nM | C[C@@]1(F)Cc2c(Oc3cc(F)cc(C#N)c3)ccc(S(C)(=O)=O)c2[C@@H]1O [Compound 300] |
| > 1000 nM | 250 to 1000 nM | O=S(=O)(c1ccc(Oc2cc(F)cc(Cl)c2)c(Cl)c1CCl)C(F)F [Compound 46] |
| > 1000 nM | 250 to 1000 nM | O=S(=O)(c1ccc(Oc2cc(Cl)cc(Cl)c2)c(Br)c1)C(F)(F)F [Compound 172] |
| > 1000 nM | 50 to 249 nM | O=S(=O)(c1ccc(Oc2ccc(F)c(F)c2)c2c1C(O)CC2)C(F)(F)F (stereo not shown) [Compound 214] |
| 250 to 1000 nM | < 50 nM | Cc1cc(Oc2ccc(S(=O)(=O)C(F)F)c3c2CC(F)(F)[C@H]3O)ccc1F [Compound 198] |

| EC50 [1] | IC50 [2] | SMILES |
| --- | --- | --- |
| > 1000 nM | > 1000 nM | N#Cc1cnn(Cc2ccc(S(=O)(=O)C(F)(F)F)c3c2CC(F)(F)[C@H]3O)c1 [Compound 538] |
| > 1000 nM | 50 to 249 nM | O=C1c2c(S(=O)(=O)C(F)F)ccc(Oc3ccc(F)c(F)c3)c2CC1(F)F [Compound 195] |
| < 50 nM | < 50 nM | N#CC1(COc2ccc(S(=O)(=O)C(F)(F)F)c3c2CC(F)(F)[C@H]3O)CCC1 [Compound 790] |
| > 1000 nM | > 1000 nM | N#Cc1cc(F)cc(Oc2ccc(S(=O)(=O)C(F)(F)F)c3c2[C@@H](N)C[C@H]3O)c1 [Compound 279] |
| > 1000 nM | 250 to 1000 nM | N#Cc1cc(F)cc(Oc2ccc3c(c2C(F)F)C(O)CS3(=O)=O)c1 (stereo not shown) [Compound 374] |
| > 1000 nM | 250 to 1000 nM | N#Cc1cc(F)cc(Oc2ccc(S(=O)(=O)C3CCC3)c3c2CC(F)(F)[C@H]3O)c1 [Compound 209] |
| 250 to 1000 nM | 250 to 1000 nM | N#Cc1cccc(Oc2ccc(S(=O)(=O)C(F)F)c(CO)c2Br)c1 [Compound 81] |
| 50 to 249 nM | 50 to 249 nM | O=S(=O)(c1ccc(O[C@@H]2CCCOC2)c2c1[C@H](O)C(F)(F)C2)C(F)(F)F [Compound 730] |
| 50 to 249 nM | 250 to 1000 nM | O=S1(=O)c2ccc(Oc3cncc(F)c3)c(Br)c2[C@@H](O)C1(F)F [Compound 423] |
| < 50 nM | < 50 nM | N#Cc1cccc(Oc2ccc3c(c2Br)[C@@H](O)C(F)(F)S3(=O)=O)c1 [Compound 430] |
| 50 to 249 nM | 50 to 249 nM | O=S(=O)(c1ccc([C@@H]2CCC[C@@H](O)C2)c2c1[C@H](O)C(F)(F)C2)C(F)(F)F [Compound 480, (S)-2,2-difluoro-4-((1R,3R)-3-hydroxycyclohexyl)-7-((trifluoromethyl)sulfonyl)-2,3-dihydro-1H-inden-1-ol] |
| 50 to 249 nM | 50 to 249 nM | N#CN=S(=O)(CF)c1ccc(Oc2cc(F)cc(C#N)c2)c2c1[C@H](O)[C@H](F)C2 (stereo partly shown) [Compound 276] |
| 50 to 249 nM | < 50 nM | Cc1cc(C#N)cc(Oc2ccc3c(c2C(F)F)[C@@H](O)C(F)(F)S3(=O)=O)c1 [Compound 392] |
| < 50 nM | < 50 nM | O=S(=O)(CF)c1ccc(Oc2cc(F)cc(Cl)c2)c2c1[C@H](O)C(F)(F)C2 [Compound 65] |
| < 50 nM | < 50 nM | O=S(=O)(c1ccc(OC[C@H]2CC2(F)F)c2c1[C@H](O)C(F)(F)C2)C(F)(F)F [Compound 727] |
| 250 to 1000 nM | > 1000 nM | N#Cc1c(Oc2cc(F)cc(F)c2)ccc2c1C(O)C(F)S2(=O)=O (stereo not shown) [Compound 390] |
| > 1000 nM | < 50 nM | CCOc1ccc(S(C)(=O)=O)c2c1CC(F)(F)[C@H]2O [Compound 778] |
| 250 to 1000 nM | 50 to 249 nM | CCCOc1ccc(I)c2c1CC(F)(F)C2O (stereo not shown) [Compound 682] |
| > 1000 nM | 250 to 1000 nM | CC1(C)CCC(=O)[C@H](c2ccc(S(=O)(=O)C(F)(F)F)c3c2CC(F)(F)[C@H]3O)C1 [Compound 542] |
| 50 to 249 nM | 250 to 1000 nM | O=S(=O)(c1ccc(OCC2CC2)c2c1[C@H](O)C(F)(F)C2)C(F)F [Compound 781] |
| 50 to 249 nM | < 50 nM | N#Cc1cc(Oc2ccc(S(=O)(=O)C(F)F)c3c2CC(F)(F)[C@H]3O)ccc1F [Compound 200] |

| EC50 [1] | IC50 [2] | SMILES |
| --- | --- | --- |
| > 1000 nM | 50 to 249 nM | O=S(=O)(c1ccc(Oc2cc(F)cc(F)c2)c2c1C=CC2)C(F)F [Compound 21] |
| 250 to 1000 nM | 50 to 249 nM | CS(=O)(=O)c1ccc(Oc2cc(F)cc(C#N)c2)c2c1[C@H](O)C(F)(F)[C@@H]2O [Compound 312] |
| < 50 nM | < 50 nM | C[C@]1(C#N)C[C@@H](Oc2ccc(S(=O)(=O)C(F)(F)F)c3c2C[C@@H](F)[C@H]3O)C1 [Compound 794] |
| 250 to 1000 nM | 250 to 1000 nM | CS(=O)(=O)c1ccc(Oc2cc(F)cc(C#N)c2)c2c1[C@H](O)C(F)(F)[C@H]2F [Compound 293] |
| > 1000 nM | 250 to 1000 nM | CCS(=O)(=O)c1ccc(Oc2cc(F)cc(Cl)c2)c2c1C(O)CC2 (stereo not shown) [Compound 91] |
| 250 to 1000 nM | 250 to 1000 nM | O=S(=O)(c1ccc(Oc2cccc3[nH]ncc23)c2c1C(O)C(F)(F)C2)C(F)(F)F (stereo not shown) [Compound 243] |
| > 1000 nM | 250 to 1000 nM | O=S(=O)(c1ccc(Oc2ccc(F)c(Cl)c2)c2c1[C@H](O)CC2)C(F)F [Compound 157] |
| 50 to 249 nM | < 50 nM | CC1CC(Oc2ccc(S(=O)(=O)C(F)(F)F)c3c2CC(F)(F)C3O)CCO1 (stereo not shown) [Compound 623] |
| > 1000 nM | 250 to 1000 nM | N#Cc1cc(F)cc(Oc2ccc(S(=O)(=O)C(F)(F)F)cc2C#N)c1 [Compound 120] |
| 250 to 1000 nM | < 50 nM | O=S1(=O)c2ccc(Oc3cccc4sccc34)c(C(F)F)c2C(O)C1(F)F (stereo not shown) [Compound 440] |
| 250 to 1000 nM | 50 to 249 nM | CCCc1ccc(S(=O)(=O)C(F)(F)F)c2c1CC(F)(F)C2O (stereo not shown) [Compound 517] |
| 50 to 249 nM | < 50 nM | O=S(=O)(CF)c1ccc(Oc2cc(F)cc(F)c2)c2c1C(O)CC2 (stereo not shown) [Compound 59] |
| > 1000 nM | > 1000 nM | CC(C)(COc1ccc(S(=O)(=O)C(F)(F)F)c2c1CC(F)(F)[C@H]2O)S(C)(=O)=O [Compound 723] |
| 50 to 249 nM | 250 to 1000 nM | NC(=O)Cc1ccc(S(=O)(=O)C(F)(F)F)c2c1CCC2O (stereo not shown) [Compound 523, 2-[1-hydroxy-7-(trifluoromethylsulfonyl)indan-4-yl]acetamide] |
| > 1000 nM | < 50 nM | O/N=C1/c2c(C(F)(F)F)ccc(OCCCF)c2[C@@H](F)C1(F)F [Compound 581] |
| 250 to 1000 nM | 50 to 249 nM | N#Cc1c(S(=O)(=O)C(F)F)ccc(Oc2cc(F)cc(Cl)c2)c1Cl [Compound 38] |
| > 1000 nM | < 50 nM | CS(=O)(=O)c1ccc(O[C@H]2C[C@](F)(C#N)C2)c2c1[C@H](O)C(F)(F)[C@@H]2F [Compound 741] |
| > 1000 nM | < 50 nM | Cc1c(S(=O)(=O)C(F)F)ccc(Oc2cc(F)cc(Cl)c2)c1C#N [Compound 32] |
| > 1000 nM | 250 to 1000 nM | CC(=O)c1c(S(=O)(=O)C(F)(F)F)ccc(Oc2cc(F)cc(Cl)c2)c1Br [Compound 104] |
| > 1000 nM | 50 to 249 nM | N#Cc1cc(F)cc(Oc2ccc(S(=O)(=O)C(F)(F)F)cc2Br)c1 [Compound 118] |

From patent US10278942B2 (PELOTON THERAPEUTICS, INC., priority 2015, dated 2019)
